Source: patent publication US12497663B2, “Method of monitoring treatment” (LDN Pharma Limited, priority 2019, dated 2025)

Tested on: CD3+/CD8+ cells (killer T-cells)
Assay: CD69 expression of PBMCs cultured with LDN or NTX (flow cytometry)
Type: cell-based
Conditions: 48 h
Experimental: Peripheral-blood mononuclear cells were isolated from whole blood or from the residue product of leukoreduction of whole blood from pathologically healthy donors using Histopaque-1077. The mononuclear fraction was harvested and red blood cell contamination removed by incubation in hypotonic ammonium chloride. Cells were washed in phosphate buffered saline (PBS) and platelet contamination removed by centrifugation at 200 g for 10 min, re-suspended at a concentration of 1×10^6 ml in RPMI-1640 culture medium. […] Peripheral-blood mononuclear cells were washed twice in wash buffer (PBS containing 1% (v/v) FBS and 0.09% (v/v) NaN3), and stained for 30 min at 4° C. with the relevant and stated antibodies for assessment of immune cell profile. Cells were washed in wash buffer and fixed in 4% paraformaldehyde for 20 min at 4° C. Expressions of the surface markers were analysed using a BD Science LSR II Flow Cytometer with dedicated proprietary software.
The activation state of CD3+ cells is indicated by CD69 expression; higher levels of CD69 expression correlate with increased CD3+ activation. CD3+ cells are T cell co-receptors that help to activate both the cytotoxic T cell (CD8+ naive T cells) and also T helper cells (CD4+ naive T cells). […] Thus, when LDN has completed its priming and the gene expressions are as determined in Example 1, the immune system is suitably boosted.

For O=C1CC[C@@]2(O)[C@H]3Cc4ccc(O)c5c4[C@@]2(CCN3CC2CC2)[C@H]1O5 [NTX, morphinan-6-one,17-(cyclopropylmethyl)-4,5-epoxy-3,14-dihydroxy-(5a)], the “CD69 expression in CD3+/CD8+ cells” value (10 nM naltrexone (LDN)) was “increased” and the “CD69 expression in CD3+/CD8+ cells” value (10 uM naltrexone (NTX)) was “did not increase”.
